According to ChEMBL document CHEMBL1155543 (Bioorg Med Chem Lett, 2010):

Legend:
[1] = biological target: Carbonic anhydrase 3 (Homo sapiens, UniProt P07451)
[2] = biological target: Carbonic anhydrase 4 (Homo sapiens, UniProt P22748)
[3] = biological target: Carbonic anhydrase 5A, mitochondrial (Homo sapiens, UniProt P35218)
[4] = biological target: Carbonic anhydrase 5B, mitochondrial (Homo sapiens, UniProt Q9Y2D0)
[5] = biological target: Carbonic anhydrase 6 (Homo sapiens, UniProt P23280)
[6] = biological target: Carbonic anhydrase 7 (Homo sapiens, UniProt P43166)
Sequence of Carbonic anhydrase 7 (P43166 whole entry): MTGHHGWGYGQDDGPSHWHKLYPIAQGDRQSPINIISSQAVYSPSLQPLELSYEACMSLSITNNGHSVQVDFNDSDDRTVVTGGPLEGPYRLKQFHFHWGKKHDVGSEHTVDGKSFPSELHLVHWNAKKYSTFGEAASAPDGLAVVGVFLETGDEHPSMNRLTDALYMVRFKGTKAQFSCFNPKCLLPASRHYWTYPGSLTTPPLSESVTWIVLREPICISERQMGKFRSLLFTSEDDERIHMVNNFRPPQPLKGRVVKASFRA

[7] = biological target: Carbonic anhydrase 12 (Homo sapiens, UniProt O43570)
Sequence of Carbonic anhydrase 12 (O43570 whole entry): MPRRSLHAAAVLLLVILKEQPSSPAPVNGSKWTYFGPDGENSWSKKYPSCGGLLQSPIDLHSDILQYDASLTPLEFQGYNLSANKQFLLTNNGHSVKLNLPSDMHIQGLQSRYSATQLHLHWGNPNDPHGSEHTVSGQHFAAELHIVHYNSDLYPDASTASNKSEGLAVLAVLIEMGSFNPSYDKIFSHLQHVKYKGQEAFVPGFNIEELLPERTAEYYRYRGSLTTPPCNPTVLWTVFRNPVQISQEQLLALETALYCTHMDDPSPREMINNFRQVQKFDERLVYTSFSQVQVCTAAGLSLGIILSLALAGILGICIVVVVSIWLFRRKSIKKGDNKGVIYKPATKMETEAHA

[8] = biological target: Carbonic anhydrase 13 (Mus musculus, UniProt Q9D6N1)
Sequence of Carbonic anhydrase 13 (Q9D6N1 whole entry): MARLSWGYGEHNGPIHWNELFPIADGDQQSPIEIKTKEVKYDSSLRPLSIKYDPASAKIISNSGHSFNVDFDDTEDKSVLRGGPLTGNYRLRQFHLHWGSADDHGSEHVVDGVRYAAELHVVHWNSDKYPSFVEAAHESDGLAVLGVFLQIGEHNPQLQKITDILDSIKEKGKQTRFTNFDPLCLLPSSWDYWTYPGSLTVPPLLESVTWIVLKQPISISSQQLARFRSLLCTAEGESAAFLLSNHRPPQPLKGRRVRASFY

[9] = biological target: Carbonic anhydrase 14 (Homo sapiens, UniProt Q9ULX7)
Sequence of Carbonic anhydrase 14 (Q9ULX7 whole entry): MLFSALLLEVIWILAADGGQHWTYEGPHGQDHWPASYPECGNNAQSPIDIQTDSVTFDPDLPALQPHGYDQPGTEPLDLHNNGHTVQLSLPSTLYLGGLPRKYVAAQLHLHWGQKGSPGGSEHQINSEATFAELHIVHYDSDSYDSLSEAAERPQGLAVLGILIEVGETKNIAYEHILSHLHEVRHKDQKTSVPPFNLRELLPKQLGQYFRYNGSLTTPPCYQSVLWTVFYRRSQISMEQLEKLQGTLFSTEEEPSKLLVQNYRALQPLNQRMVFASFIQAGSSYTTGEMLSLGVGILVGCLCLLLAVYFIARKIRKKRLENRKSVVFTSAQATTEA

[10] = biological target: T1, Carbonic anhydrase 15 (Mus musculus, UniProt Q99N23)
T1 sequence (Q99N23 whole entry): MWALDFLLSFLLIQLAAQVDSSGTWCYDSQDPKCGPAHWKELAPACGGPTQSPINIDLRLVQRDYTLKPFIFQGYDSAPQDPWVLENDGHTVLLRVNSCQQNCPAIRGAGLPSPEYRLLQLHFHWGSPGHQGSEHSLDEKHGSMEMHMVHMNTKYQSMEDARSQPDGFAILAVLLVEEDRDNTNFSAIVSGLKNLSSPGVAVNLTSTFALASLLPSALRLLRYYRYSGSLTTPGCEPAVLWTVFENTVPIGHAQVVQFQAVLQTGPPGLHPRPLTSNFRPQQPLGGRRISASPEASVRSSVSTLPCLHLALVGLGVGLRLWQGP

Sequence of Carbonic anhydrase 3 (P07451 whole entry): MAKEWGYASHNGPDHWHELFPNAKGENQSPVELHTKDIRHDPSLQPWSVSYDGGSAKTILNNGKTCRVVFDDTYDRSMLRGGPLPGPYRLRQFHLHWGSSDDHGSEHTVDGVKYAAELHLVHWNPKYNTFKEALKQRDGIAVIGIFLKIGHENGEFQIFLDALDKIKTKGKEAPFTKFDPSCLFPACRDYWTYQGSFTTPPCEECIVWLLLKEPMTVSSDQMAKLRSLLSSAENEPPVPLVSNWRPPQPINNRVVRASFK
Sequence of Carbonic anhydrase 5B, mitochondrial (Q9Y2D0 whole entry): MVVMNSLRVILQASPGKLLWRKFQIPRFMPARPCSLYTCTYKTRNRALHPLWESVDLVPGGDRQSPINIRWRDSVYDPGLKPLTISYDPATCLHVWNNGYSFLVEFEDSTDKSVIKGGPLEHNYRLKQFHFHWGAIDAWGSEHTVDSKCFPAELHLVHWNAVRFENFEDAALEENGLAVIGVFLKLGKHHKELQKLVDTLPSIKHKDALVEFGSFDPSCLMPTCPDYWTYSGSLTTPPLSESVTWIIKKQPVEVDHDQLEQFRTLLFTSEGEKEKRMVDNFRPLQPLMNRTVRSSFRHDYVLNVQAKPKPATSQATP
Sequence of Carbonic anhydrase 4 (P22748 whole entry): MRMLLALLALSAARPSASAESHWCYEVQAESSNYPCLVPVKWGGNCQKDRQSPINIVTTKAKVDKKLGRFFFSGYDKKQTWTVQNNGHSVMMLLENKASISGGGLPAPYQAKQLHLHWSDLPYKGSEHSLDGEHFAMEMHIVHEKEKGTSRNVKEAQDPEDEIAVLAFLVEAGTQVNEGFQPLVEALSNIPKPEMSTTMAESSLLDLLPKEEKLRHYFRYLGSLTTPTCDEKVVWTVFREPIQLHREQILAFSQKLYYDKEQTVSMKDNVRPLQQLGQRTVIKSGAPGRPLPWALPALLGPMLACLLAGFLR
Sequence of Carbonic anhydrase 6 (P23280 whole entry): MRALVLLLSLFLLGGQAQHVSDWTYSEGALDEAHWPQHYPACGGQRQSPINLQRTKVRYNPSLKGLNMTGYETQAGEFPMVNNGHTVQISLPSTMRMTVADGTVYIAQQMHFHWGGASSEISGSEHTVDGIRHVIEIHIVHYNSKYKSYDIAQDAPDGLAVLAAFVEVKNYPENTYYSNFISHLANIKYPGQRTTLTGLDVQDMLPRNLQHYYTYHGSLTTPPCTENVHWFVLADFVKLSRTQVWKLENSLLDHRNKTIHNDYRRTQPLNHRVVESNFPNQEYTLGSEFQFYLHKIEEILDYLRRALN
Sequence of Carbonic anhydrase 5A, mitochondrial (P35218 whole entry): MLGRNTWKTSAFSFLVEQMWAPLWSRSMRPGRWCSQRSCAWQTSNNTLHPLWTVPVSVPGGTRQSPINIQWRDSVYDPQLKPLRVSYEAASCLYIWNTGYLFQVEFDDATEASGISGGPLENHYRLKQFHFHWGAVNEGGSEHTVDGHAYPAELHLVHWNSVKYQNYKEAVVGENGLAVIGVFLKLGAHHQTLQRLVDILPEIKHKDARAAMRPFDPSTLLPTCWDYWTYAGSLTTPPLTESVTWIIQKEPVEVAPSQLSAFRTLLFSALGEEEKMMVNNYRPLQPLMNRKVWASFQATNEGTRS

Row | Ki [1] | Ki [2] | Ki [3] | Ki [4] | Ki [5] | Ki [6] | Ki [7] | Ki [8] | Ki [9] | Ki [10] | SMILES
1 | 4000 µM | – | – | – | – | – | – | – | – | – | CC1(C)O[C@@H]2[C@@H](CO[C@@]3(CNS(N)(=O)=O)OC(C)(C)O[C@@H]23)O1
2 | 8.77 µM | 8.62 µM | 0.087 µM | 0.075 µM | 0.749 µM | 0.084 µM | 0.0089 µM | 0.994 µM | 0.0071 µM | 0.089 µM | CC1(C)OB(c2ccc(NS(N)(=O)=O)cc2)OC1(C)C
3 | 1090 µM | – | – | – | – | – | – | – | – | – | NS(N)(=O)=O [SULFAMIDE]
